Results: US9365532B1, “Synthesis, composition and use of novel therapeutic and cosmetic Schiff base products formed by reaction of a carbonyl containing moeity with a transimination nucleophilic catalyst and the use of transimination nucleophilic catalysts to increase the rate at which carbonyl containing therapeutic and …” (Nanometics, LLC., priority 2011, dated 2016)
“Also recorded” adds a separate entry of the source.

Assays:
human skin = test: Melanoidin formation in vivo on human skin; conditions: low concentrations of transimination nucleophilic catalyst
Description: The application areas were allowed to dry for 5 min and were monitored for 14 days, with photographs taken throughout. The subjects were asked not to bathe for the first 24 h. […] Significant differences in the appearance of the application areas were noticeable during the study, and no adverse reactions of any kind were observed. […] The preliminary results of these experiments are promising, and we plan to expand the study to incorporate a larger, statistically significant panel during phase II SBIR studies.

HbA = biological target: T1, HbA (Homo sapiens, UniProt P69905); test: 5HMF/HbA Schiff base adduct formation with purified HbA, cation-exchange HPLC; assay type: binding; conditions: for percent Hb adduct (5HMF/HbA): 30 min at room temperature, HbA 1 mg/ml PBS 7.4
T1 construct: purified HbA (1 mg/ml), from an anonymous human donor; from tissue; host or cells: blood of an anonymous human donor (purified HbA)
T1 sequence (P69905 2-142 limits assumed): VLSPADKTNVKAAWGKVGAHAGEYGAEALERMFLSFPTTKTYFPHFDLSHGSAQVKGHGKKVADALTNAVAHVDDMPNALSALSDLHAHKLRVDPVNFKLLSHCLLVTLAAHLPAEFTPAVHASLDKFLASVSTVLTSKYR
T1 sequence (P68871 2-147 partner limits assumed): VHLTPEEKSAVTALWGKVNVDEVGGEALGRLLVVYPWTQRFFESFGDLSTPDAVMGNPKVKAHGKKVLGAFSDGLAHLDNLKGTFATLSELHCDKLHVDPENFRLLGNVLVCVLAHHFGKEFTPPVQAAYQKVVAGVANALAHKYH
Description: The isolated imine of Example 1, formed by reacting p-aminobenzoic acid and 5-hydroxymethyl furfural, reacts with hemoglobin at faster rates than 5HMF. The therapeutic imine was synthesized according to Example 1. To a solution of purified HbA (1 mg/ml), from an anonymous human donor, in PBS 7.4 was added equivalent amounts of the therapeutic imine of AIC (1 mM), or 5HMF (1 mM). The HbA solutions show a new peak (˜7.1 min) on cation-exchange HPLC (Table 2) that elutes prior to the unmodified HbA peak (˜8.2 min). The new peak represents the […] formed between 5HMF and HbA and can be quantified by integration of the representative peaks. […] The initial rate of Schiff base adduct formation between the therapeutic imine and HbA is nearly 10 times faster than the rate of formation between 5HMF and HbA, as determined by cation-exchange HPLC at room temperature.

HbS [1] = biological target: T2, HbS (Homo sapiens, UniProt P69905); test: Ex vivo 5HMF/HbS adduct formation in whole blood, AIC vs 5HMF; assay type: cell-based, BERKγM mouse; conditions: for 5HMF/HbS adduct formed: 30 min at 37° C.
T2 construct: To aliquots of whole blood (100 μL), from the BERKγM mouse; from tissue; host or cells: red cells in whole blood of BERKγM / BERK M transgenic sickle mice (ex vivo incubation, or in vivo after i.v. injection)
Target sequence in this assay (P69905 2-142 limits assumed): as the sequence (P69905 2-142 limits assumed) above

[2] = Stability to air, light and moisture (controlled humidity chamber); assay type: physicochemical; conditions: 500 mg, light, 22° C., 2 wks
Description: The commercial-scale production, distribution and stability of 5HMF, a hygroscopic off-white solid, may be costly as the compound is highly susceptible to degradation upon exposure to air, light and moisture (21). […] To quantify the differences in stability, 500 mg of AIC or 5HMF were placed in a controlled humidity chamber and exposed to light at 22° C. for a period of 2 wks.

hemoglobin = hemoglobin (Homo sapiens, UniProt P69905); test: Oxygen equilibrium curves of hemoglobin solutions (Hemox Analyzer); assay type: biochemical; conditions: for n50 (hill coefficient) / ΔP50 (%) / P50: no PABA
Sequence of hemoglobin (P69905 2-142 limits assumed): as above
Sequence of hemoglobin (P68871 2-147 partner limits assumed): as the sequence (P68871 2-147 partner limits assumed) above
Description: The oxygen equilibrium curves (OEC) of hemoglobin (1 mg/ml) in phosphate buffer saline pH 7.4 containing 100 mM, 10 mM or 1 mM of the sodium salt of p-aminobenzoate (Sigma) were determined with a Hemox Analyzer (TCS Scientific Corp.). Hemoglobin solutions were incubated at 37° C. for 1 h, in the presence (+) or absence (−) of each compound, as specified in Table 1.

HbS [3] = biological target: T2, HbS; test: Ex vivo 5HMF/HbS adduct formation in whole blood, PABA/5HMF mixtures; assay type: cell-based, BERKγM transgenic mouse; conditions: for 5HMF/HbS adduct formed: whole blood
Description: Studies were initiated to explore the impact of mixing equimolar concentrations of PABA and 5HMF on the rate of 5HMF/HbS adduct formation in whole blood from a BERKγM transgenic mouse. To aliquots of whole blood (100 μL) was added either 5HMF (2 mM or 5 mM), the sodium salt of PABA (2 mM or 5 mM), or equimolar concentrations of PABA/5HMF (2 mM or 5 mM). […] The rate enhancements are not optimized in these experiments, and additional experiments to account for the differences in rates of transport across the RBC membrane will be performed during Phase II SBIR studies.
Target sequence in this assay (P69905 2-142): as the sequence (P69905 2-142 limits assumed) above

HbS [4] = biological target: T2, HbS; test: In vivo 5HMF/HbS adduct formation after intravenous injection; design: species or system BERK M mice; conditions: 200 mg/kg each
Description: BERK M mice were injected (intravenous) with solutions containing either 5HMF (200 mg/kg) or 5HMF (200 mg/kg) and the sodium salt of PABA (200 mg/kg). […] To assess of 5HMF/HbS adduct formation, aliquots of blood were taken at 10 and 30 min, and immediately washed, lysed and subjected to HPLC as previously described.
Target sequence in this assay (P69905 2-142): as the sequence (P69905 2-142 limits assumed) above

sickle cells = conditions: in vitro, high concentrations of 5HMF; cited from earlier work
[5] = mouse, in vivo; cited from earlier work
[6] = Behaviour and toxicity after intravenous injection
T-cell surface amines = test: Competitive covalent ligation assay, Tucaresol/T-cell adduct formation (flow cytometry); assay type: cell-based, Balb/c male mice; conditions: 500 μM Tucaresol and/or 1 mM PABA, 30 min, 37° C.
Text: The central hypothesis of our approach involves utilizing PABA to increase the rate of Schiff base formation between Tucaresol and T-cells in order to minimize the concentration of Tucaresol required for efficacy. We used an established competitive covalent ligation assay (2) to examine the influence of PABA on the rate and degree of Schiff base-adduct formation between Tucaresol and T-cells isolated from the spleens of Balb/c male mice. In this assay, the degree of Tucaresol/T-cell adduct formation is inversely proportional to the mean fluorescence intensity (as visualized by ligation with S-NHS-biotin and FITC-avidin). T-cells were incubated for 30 min with 500 μM Tucaresol only (blue column, FIG. 5), 1 mM PABA only (orange column, FIG. 5) or a mixture of 500 μM Tucaresol and 1 mM PABA (red column, FIG. 5) at 37° C. After 30 min, the reducing agent NaCNBH3 was added to selectively reduce Schiff base adducts (chemically trapping the Tucaresol/T-cell adduct). Washed cells were exposed for 1 h to 12.5 μM S-NHS-biotin (Pierce Rockford, Ill.) to ligate unreacted free surface amino groups. After washing, cells were exposed to excess fluorescent avidin (FITC-avidin) (Pierce), fixed and visualized using flow cytometry.

[7] = Melanoidin formation in vitro in glycine/DHA solutions; conditions: glycine (6%) and DHA (6%), 32° C.
Description: Solutions of glycine (6%) and DHA (6%) in 100 mM NH4OAc buffer pH 5.5 were incubated in the presence (+) and absence (−) of the sodium salt of PABA (1%) at 32° C.

[8] = humans; cited from earlier work
HIV-positive patients = conditions: cited from earlier work

CCC=CCCOC(=O)c1ccccc1N [3-hexen-1-yl anthranilate]
rate at which melanoidin formation occurs on human skin (human skin): significantly increase the rate

O=C(O)c1ccc(/N=C/c2ccc(CO)o2)cc1 [AIC, 4-((5-(hydroxymethyl)furan-2-yl)methyleneamino)benzoic acid]
rate of 5HMF/HbA adduct formation vs 5HMF (in words) (HbA; 1 mM AIC or 1 mM 5HMF): significantly enhanced rates
percent Hb adduct (5HMF/HbA) (HbA; 1 mM): ~32%
initial rate of Schiff base adduct formation with HbA relative to 5HMF (HbA; 1 mM, room temperature): ~10 times
5HMF/HbS adduct formed (HbS [1]; 5 mM, whole blood): 50%
rate of 5HMF/HbS adduct formation vs 5HMF (in words) (HbS [1]; 5 mM, whole blood, initial rate measured after 10 min): significantly faster; also recorded: significantly enhanced rates
erythrocyte membrane permeation (HbS [1]; whole blood, 5 mM): permeates the erythrocyte membrane
chemical change by 1HNMR spectra and HPLC chromatogram on storage [2]: no changes
color change on storage [2]: did not exhibit a noticeable color change

O=Cc1ccc(CO)o1 [Example 5HMF, 5-hydroxymethyl-2-furfural]
n50 (hill coefficient) (hemoglobin; Exp A: 1 mM 5HMF, 1 h 37° C.): 2.50
ΔP50 (%) (hemoglobin; Exp A: 1 mM 5HMF, 1 h 37° C., vs control P50): 7.53%
P50 (hemoglobin; Exp A: 1 mM 5HMF, Hb 1 mg/ml PBS pH 7.4, 1 h 37° C.): 14.00 mmHg
P50 (hemoglobin; Exp E: 3 mM 5HMF, 1 h 37° C.): 8.21 mmHg
n50 (hill coefficient) (hemoglobin; Exp E: 3 mM 5HMF, 1 h 37° C.): 1.73
ΔP50 (%) (hemoglobin; Exp E: 3 mM 5HMF, 1 h 37° C.): 45.78%
P50 (hemoglobin; Exp F: 5 mM 5HMF, 1 h 37° C.): 5.72 mmHg
n50 (hill coefficient) (hemoglobin; Exp F: 5 mM 5HMF, 1 h 37° C.): 1.91
ΔP50 (%) (hemoglobin; Exp F: 5 mM 5HMF, 1 h 37° C.): 62.22%
percent Hb adduct (5HMF/HbA) (HbA; 1 mM): 6%
5HMF/HbS adduct formed (HbS [1]; 5 mM, whole blood): 27%
chemical change by 1HNMR spectra and HPLC chromatogram on storage [2]: After 3 days, the 5HMF sample has undergone significant chemical changes
color change on storage [2]: becomes yellow after 24 h
5HMF/HbS adduct formed (HbS [3]; 2 mM (equimolar for mixture), 37° C.): 23%
5HMF/HbS adduct formed (HbS [3]; 5 mM (equimolar for mixture), 30 minutes at 37° C.): 40%
5HMF/HbS adduct (HbS [4]; blood taken at 10 min): 5.1%
5HMF/HbS adduct (HbS [4]; blood taken at 30 min): 4.1%
hypoxia-induced formation of sickle cells (sickle cells): largely inhibited
survival time of mice exposed to severe hypoxia [5]: prolonged the survival time
behavior of mice after injection ([6]; 200 mg/kg, intravenous): became lethargic and exhibited noticeable changes in behavior
convulsion and death ([6]; higher concentrations of 5HMF (300-500 mg/kg)): caused mice to convulse and die

CC1CCC(C(C)C)C(OC(=O)c2ccccc2N)C1 (stereo not drawn) [Menthyl-o-aminobenzoate]
rate at which melanoidin formation occurs on human skin (human skin): significantly increase the rate

Nc1ccccc1C(=O)O [OABA, o-aminobenzoic acid]
rate at which melanoidin formation occurs on human skin (human skin): significantly increase the rate

Nc1ccc(C(=O)O)cc1 [PABA, p-aminobenzoic acid]
shift of OEC / change in P50 value vs Hb control (hemoglobin; 100 mM, 10 mM or 1 mM PABA, no 5HMF): did not shift the OEC or cause a change in the P50 value
new adduct peak by HPLC (HbA; PABA only control): did not show a new peak
new adduct peak by HPLC (HbS [1]; PABA only negative control): did not show a new peak
amount of 5HMF/HbS adduct formed in the presence of equimolar PABA (in words) (HbS [3]; 2 mM or 5 mM 5HMF with equimolar PABA, FIG. 2): significantly increased
adduct formation (HbS [3]; PABA only control (2 mM or 5 mM)): did not result in any adduct formation
mean fluorescence intensity of T-cells (inversely proportional to Tucaresol/T-cell adduct formation) (T-cell surface amines): did not exhibit a change in mean fluorescent intensity
rate of darkening of solutions ([7]; 100 mM NH4OAc pH 5.5, 1% PABA sodium salt, vs no PABA): darkened at faster rates
change of UV-Vis spectrum ([7]; 1% PABA): changed more rapidly
rate at which melanoidin formation occurs on human skin (human skin): significantly increase the rate
daily doses with no reported side effects [8]: below 12 grams

O=Cc1c(O)cccc1OCc1ccc(C(=O)O)cc1 [Tucaresol, 4(2-formyl-3-hydroxy-phenoxymethyl) benzoic acid]
CD4+ counts (HIV-positive patients; HIV-positive patients): increase in CD4+ counts
HIV viraemia (HIV-positive patients; HIV-positive patients): unaffected
Tucaresol-related serious adverse events (patients) (HIV-positive patients; after the first dose): 2/21

CCCCOC(=O)c1ccccc1N [butyl anthranilate]
rate at which melanoidin formation occurs on human skin (human skin): significantly increase the rate

CCOC(=O)c1ccccc1N [ethyl anthranilate]
rate at which melanoidin formation occurs on human skin (human skin): significantly increase the rate

COC(=O)c1ccccc1N [methyl anthranilate]
rate at which melanoidin formation occurs on human skin (human skin): significantly increase the rate
